pIC50: −log10 of the molar value.
Experiments:
[1] = biological target: T1, Serine/threonine-protein kinase TBK1 (Homo sapiens) (UniProt Q9UHD2); assay: Inhibition of TBK1 (unknown origin) incubated at 100 nM for 1 hr in presence of ATP by FRET based Z'-Lyte assay relative to control
T1 sequence (whole entry): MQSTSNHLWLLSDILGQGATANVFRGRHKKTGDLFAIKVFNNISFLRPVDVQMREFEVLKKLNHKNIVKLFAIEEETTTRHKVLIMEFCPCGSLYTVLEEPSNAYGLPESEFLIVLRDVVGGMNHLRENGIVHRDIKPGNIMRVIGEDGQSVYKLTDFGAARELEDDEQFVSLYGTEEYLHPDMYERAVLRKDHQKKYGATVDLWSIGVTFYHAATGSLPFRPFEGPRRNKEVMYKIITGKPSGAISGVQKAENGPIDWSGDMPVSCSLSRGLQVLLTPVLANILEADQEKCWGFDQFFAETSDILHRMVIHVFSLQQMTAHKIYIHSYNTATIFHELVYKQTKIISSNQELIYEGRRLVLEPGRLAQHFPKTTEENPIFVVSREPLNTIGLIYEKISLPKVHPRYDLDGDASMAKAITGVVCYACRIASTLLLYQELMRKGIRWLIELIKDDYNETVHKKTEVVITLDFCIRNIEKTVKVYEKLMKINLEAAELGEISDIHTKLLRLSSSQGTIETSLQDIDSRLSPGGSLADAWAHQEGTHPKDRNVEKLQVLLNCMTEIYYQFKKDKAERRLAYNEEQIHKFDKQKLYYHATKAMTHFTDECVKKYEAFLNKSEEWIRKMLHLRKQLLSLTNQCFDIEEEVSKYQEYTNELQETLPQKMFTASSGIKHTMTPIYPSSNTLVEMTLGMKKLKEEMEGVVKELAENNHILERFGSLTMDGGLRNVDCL

[2] = biological target: T1, Serine/threonine-protein kinase TBK1 (Homo sapiens); assay: Inhibition of TBK1 (unknown origin) incubated at 10 nM for 1 hr in presence of ATP by FRET based Z'-Lyte assay relative to control
[3] = biological target: T1, Serine/threonine-protein kinase TBK1 (Homo sapiens); assay: Inhibition of TBK1 (unknown origin) incubated at 1000 nM for 1 hr in presence of ATP by FRET based Z'-Lyte assay relative to control
[4] = biological target: T2, Serine/threonine-protein kinase TBK1 (Homo sapiens, UniProt Q9UHD2); assay: Inhibition of TBK1 (unknown origin) incubated for 1 hr in presence of ATP by FRET based Z'-Lyte assay
T2 sequence (Q9UHD2 whole entry): T1 sequence (whole entry)

inhibition [1] [%]	inhibition [2] [%]	inhibition [3] [%]	pIC50 [4]	Compound
22.8	< 0	78.7		Cc1cn(CCCNC(=O)C2CCC2)c2nc(Nc3cccc(CN4CCOCC4)c3)ncc12
68.9	23	91.8	7.45	COCCN(C)Cc1cccc(Nc2ncc3ccn(CCCNC(=O)C4CCC4)c3n2)c1
< 0	< 0	< 0		O=C(Nc1cccc(Cn2ccc3cnc(Nc4cccc(CN5CCOCC5)c4)nc32)c1)C1CCC1
64	14.7	92.3	7.30	O=C(NCCCn1ccc2cnc(Nc3cccc(CN4CCN(C5COC5)CC4)c3)nc21)C1CCC1
< 0	< 0	1.8		O=C(Nc1ccc(-n2ccc3cnc(Nc4cccc(CN5CCOCC5)c4)nc32)nc1)C1CCC1
< 0	< 0	0.6		O=C(NCCCN1C(=O)Cc2cnc(Nc3cccc(CN4CCOCC4)c3)nc21)C1CCC1
37.1	1.33	84.4		O=C(NCCCn1cc(Br)c2cnc(Nc3cccc(CN4CCOCC4)c3)nc21)C1CCC1
< 0	< 0	< 0		O=C(NCCCn1cc(C2CC2)c2cnc(Nc3cccc(CN4CCOCC4)c3)nc21)C1CCC1
55.8	9.6	91		O=C(NCCCn1cc(Cl)c2cnc(Nc3cccc(CN4CCOCC4)c3)nc21)C1CCC1
< 0	< 0	< 0		O=C(C1CCC1)N1CCC(n2ccc3cnc(Nc4cccc(CN5CCOCC5)c4)nc32)CC1

— ChEMBL document CHEMBL5352492, “Application of deep generative model for design of Pyrrolo[2,3-d] pyrimidine derivatives as new selective TANK binding kinase 1 (TBK1) inhibitors” (Eur J Med Chem, 2023)
